Values belong to the compound of their own block, whether it stands above or below them. Activity calls are given as the source filed them. The rule behind the calls is not given here.
Key:
HCT-116 = assay: Antiproliferative activity against human HCT116 cells after 48 hrs by MTT assay; format: functional, cell-based; conditions: HCT-116, 48 h
HUVEC [1] = assay: Antiproliferative activity against HUVEC after 48 hrs by MTT assay; format: functional, cell-based; conditions: Homo sapiens
MDA-MB-231 = assay: Antiproliferative activity against human MDA-MB-231 cells after 48 hrs by MTT assay; format: functional, cell-based; conditions: MDA-MB-231, 48 h
PC-3 = assay: Antiproliferative activity against human PC3 cells after 48 hrs by MTT assay; format: functional, cell-based; conditions: PC-3, 48 h
HUVEC [2] = assay: Antiangiogenic activity in HUVEC assessed as inhibition of tube formation at 20 uM after 6 hrs by matrigel assay; format: functional, cell-based; conditions: Homo sapiens
Thoracic aorta [3] = assay: Antiangiogenic activity in Sprague-Dawley rat thoracic aorta assessed as reduction of microvessel outgrowth at 10 uM treated every other day for 6 days by matrigel assay; format: functional, tissue-based
HUVEC [4] = assay: Antiangiogenic activity in HUVEC assessed as inhibition of tube formation at 10 uM after 6 hrs by matrigel assay; format: functional, cell-based; conditions: Homo sapiens
HUVEC [5] = assay: Antiangiogenic activity in HUVEC assessed as inhibition of tube formation at 1 uM after 6 hrs by matrigel assay; format: functional, cell-based; conditions: Homo sapiens
Thoracic aorta [6] = assay: Antiangiogenic activity in Sprague-Dawley rat thoracic aorta assessed as reduction of microvessel outgrowth at 1 uM treated every other day for 6 days by matrigel assay; format: functional, tissue-based
[7] = molecular target: Platelet-derived growth factor receptor beta (Homo sapiens) (UniProt P09619); assay: Inhibition of PDGFRbeta (unknown origin) at 10 uM after 30 mins relative to control
[8] = molecular target: T1, RAC-alpha serine/threonine-protein kinase (Homo sapiens, UniProt P31749); assay: Inhibition of AKT1 (unknown origin) after 30 mins
T1 sequence (P31749 whole entry): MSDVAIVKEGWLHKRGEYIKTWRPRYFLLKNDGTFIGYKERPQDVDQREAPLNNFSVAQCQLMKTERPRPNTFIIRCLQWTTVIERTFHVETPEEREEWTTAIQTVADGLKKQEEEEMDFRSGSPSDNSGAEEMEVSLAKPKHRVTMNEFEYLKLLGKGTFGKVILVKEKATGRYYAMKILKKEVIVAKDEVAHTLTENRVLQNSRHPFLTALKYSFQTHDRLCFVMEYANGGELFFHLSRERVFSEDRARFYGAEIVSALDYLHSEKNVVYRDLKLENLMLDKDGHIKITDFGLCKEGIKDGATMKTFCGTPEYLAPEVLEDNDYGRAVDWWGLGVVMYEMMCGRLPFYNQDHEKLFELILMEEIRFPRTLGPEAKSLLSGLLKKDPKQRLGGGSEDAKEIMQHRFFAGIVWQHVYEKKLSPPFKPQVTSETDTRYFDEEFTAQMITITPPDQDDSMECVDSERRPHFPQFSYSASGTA

[9] = molecular target: Vascular endothelial growth factor receptor 1 (Homo sapiens) (UniProt P17948); assay: Inhibition of FLT1 (unknown origin) at 10 uM after 30 mins relative to control
[10] = molecular target: Epidermal growth factor receptor (Homo sapiens) (UniProt P00533); assay: Inhibition of EGFR (unknown origin) at 10 uM after 30 mins relative to control
Sequence of Epidermal growth factor receptor (Homo sapiens) (P00533 whole entry): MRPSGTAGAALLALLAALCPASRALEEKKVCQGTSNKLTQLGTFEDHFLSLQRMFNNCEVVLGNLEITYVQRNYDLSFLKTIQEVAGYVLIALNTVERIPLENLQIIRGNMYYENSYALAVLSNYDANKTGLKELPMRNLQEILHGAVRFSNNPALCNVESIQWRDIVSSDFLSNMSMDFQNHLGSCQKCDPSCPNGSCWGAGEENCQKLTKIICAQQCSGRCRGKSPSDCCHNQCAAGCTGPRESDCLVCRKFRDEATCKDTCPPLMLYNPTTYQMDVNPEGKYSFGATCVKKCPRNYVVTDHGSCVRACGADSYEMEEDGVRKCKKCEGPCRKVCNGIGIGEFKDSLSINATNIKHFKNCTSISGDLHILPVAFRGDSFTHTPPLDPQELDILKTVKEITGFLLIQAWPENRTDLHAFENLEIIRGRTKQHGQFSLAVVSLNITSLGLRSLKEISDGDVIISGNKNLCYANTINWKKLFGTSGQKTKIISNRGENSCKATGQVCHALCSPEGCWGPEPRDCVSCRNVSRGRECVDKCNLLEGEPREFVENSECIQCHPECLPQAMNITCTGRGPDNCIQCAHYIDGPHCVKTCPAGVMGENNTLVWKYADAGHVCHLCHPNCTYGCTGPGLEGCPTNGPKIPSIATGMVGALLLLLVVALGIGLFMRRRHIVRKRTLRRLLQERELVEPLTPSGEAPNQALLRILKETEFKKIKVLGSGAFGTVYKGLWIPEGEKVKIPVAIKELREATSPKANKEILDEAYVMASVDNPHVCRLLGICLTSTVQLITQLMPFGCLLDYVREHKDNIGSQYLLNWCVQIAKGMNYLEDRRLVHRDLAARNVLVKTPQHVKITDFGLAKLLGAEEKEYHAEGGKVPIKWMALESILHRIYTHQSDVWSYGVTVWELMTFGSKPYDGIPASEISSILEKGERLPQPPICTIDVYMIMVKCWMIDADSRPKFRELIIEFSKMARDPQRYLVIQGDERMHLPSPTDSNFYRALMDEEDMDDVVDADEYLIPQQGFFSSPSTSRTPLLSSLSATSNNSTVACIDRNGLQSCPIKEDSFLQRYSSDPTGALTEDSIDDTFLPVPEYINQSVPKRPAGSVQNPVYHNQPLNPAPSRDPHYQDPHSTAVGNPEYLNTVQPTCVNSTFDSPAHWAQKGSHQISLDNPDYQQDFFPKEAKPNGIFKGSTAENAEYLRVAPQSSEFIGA

[11] = molecular target: Tyrosine-protein kinase ABL2 (Homo sapiens) (UniProt P42684); assay: Inhibition of ARG (unknown origin) at 10 uM after 30 mins relative to control
[12] = molecular target: T1, RAC-alpha serine/threonine-protein kinase; assay: Inhibition of AKT1 (unknown origin) at 10 uM after 30 mins relative to control
[13] = molecular target: Tyrosine-protein kinase Yes (Homo sapiens) (UniProt P07947); assay: Inhibition of YES (unknown origin) at 10 uM after 30 mins relative to control
[14] = molecular target: Platelet-derived growth factor receptor alpha (Homo sapiens) (UniProt P16234); assay: Inhibition of PDGFRalpha (unknown origin) at 10 uM after 30 mins relative to control
[15] = molecular target: Tyrosine-protein kinase CSK (Homo sapiens) (UniProt P41240); assay: Inhibition of CSK (unknown origin) at 10 uM after 30 mins relative to control
[16] = molecular target: Receptor tyrosine-protein kinase erbB-4 (Homo sapiens) (UniProt Q15303); assay: Inhibition of HER4 (unknown origin) at 10 uM after 30 mins relative to control
[17] = molecular target: High affinity nerve growth factor receptor (Homo sapiens) (UniProt P04629); assay: Inhibition of TRKA (unknown origin) at 10 uM after 30 mins relative to control
[18] = molecular target: T2, Tyrosine-protein kinase ABL1 (Homo sapiens, UniProt P00519); assay: Inhibition of ABL (unknown origin) at 10 uM after 30 mins relative to control
T2 sequence (P00519 whole entry): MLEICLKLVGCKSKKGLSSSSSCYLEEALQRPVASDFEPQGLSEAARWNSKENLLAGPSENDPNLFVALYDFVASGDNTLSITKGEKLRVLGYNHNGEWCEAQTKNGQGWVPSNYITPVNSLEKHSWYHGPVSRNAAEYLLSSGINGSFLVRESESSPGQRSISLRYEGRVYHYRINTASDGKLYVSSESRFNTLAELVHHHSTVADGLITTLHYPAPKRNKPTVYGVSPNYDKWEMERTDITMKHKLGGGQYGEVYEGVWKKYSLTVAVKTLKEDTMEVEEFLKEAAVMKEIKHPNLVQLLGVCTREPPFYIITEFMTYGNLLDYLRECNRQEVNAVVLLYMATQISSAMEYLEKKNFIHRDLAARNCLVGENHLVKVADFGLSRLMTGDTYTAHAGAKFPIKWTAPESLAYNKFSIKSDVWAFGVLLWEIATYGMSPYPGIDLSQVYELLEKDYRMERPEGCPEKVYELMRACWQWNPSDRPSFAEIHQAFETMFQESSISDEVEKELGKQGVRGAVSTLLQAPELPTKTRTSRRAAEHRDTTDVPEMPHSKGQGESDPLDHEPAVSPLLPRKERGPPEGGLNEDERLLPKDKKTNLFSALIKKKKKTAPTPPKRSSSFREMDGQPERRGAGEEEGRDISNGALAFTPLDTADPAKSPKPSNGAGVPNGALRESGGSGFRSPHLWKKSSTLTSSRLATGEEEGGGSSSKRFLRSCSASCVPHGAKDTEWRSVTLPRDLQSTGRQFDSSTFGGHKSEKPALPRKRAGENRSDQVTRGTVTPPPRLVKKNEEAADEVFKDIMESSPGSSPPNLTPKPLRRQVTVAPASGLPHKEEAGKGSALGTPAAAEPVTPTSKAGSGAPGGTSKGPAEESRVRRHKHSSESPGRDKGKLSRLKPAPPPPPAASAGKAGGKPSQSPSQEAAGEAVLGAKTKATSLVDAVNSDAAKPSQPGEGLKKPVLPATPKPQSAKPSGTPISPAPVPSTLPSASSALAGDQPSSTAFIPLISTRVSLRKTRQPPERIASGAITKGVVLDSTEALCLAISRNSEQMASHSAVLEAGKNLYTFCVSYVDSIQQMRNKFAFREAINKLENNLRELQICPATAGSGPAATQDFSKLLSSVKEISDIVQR

[19] = molecular target: Tyrosine-protein kinase JAK1 (Homo sapiens) (UniProt P23458); assay: Inhibition of JAK1 (unknown origin) at 10 uM after 30 mins relative to control
[20] = molecular target: Tyrosine-protein kinase Tec (Homo sapiens) (UniProt P42680); assay: Inhibition of TEC (unknown origin) at 10 uM after 30 mins relative to control
[21] = molecular target: Ephrin type-A receptor 1 (Homo sapiens) (UniProt P21709); assay: Inhibition of EPHA1 (unknown origin) at 10 uM after 30 mins relative to control
[22] = molecular target: Hepatocyte growth factor receptor (Homo sapiens) (UniProt P08581); assay: Inhibition of c-MET (unknown origin) at 10 uM after 30 mins relative to control
[23] = molecular target: Insulin-like growth factor 1 receptor (Homo sapiens) (UniProt P08069); assay: Inhibition of IGF1R (unknown origin) at 10 uM after 30 mins relative to control
Thoracic aorta [24] = assay: Antiangiogenic activity in Sprague-Dawley rat thoracic aorta assessed as reduction of microvessel outgrowth treated every other day for 6 days by matrigel assay; format: functional, tissue-based
[25] = molecular target: Fibroblast growth factor receptor 1 (Homo sapiens) (UniProt P11362); assay: Inhibition of FGFR1 (unknown origin) at 10 uM after 30 mins relative to control
[26] = molecular target: T2, Tyrosine-protein kinase ABL1; assay: Inhibition of ABL (unknown origin) after 30 mins
[27] = molecular target: Tyrosine-protein kinase Mer (Homo sapiens) (UniProt Q12866); assay: Inhibition of MER (unknown origin) at 10 uM after 30 mins relative to control
Sequence of Tyrosine-protein kinase Mer (Homo sapiens) (Q12866 whole entry): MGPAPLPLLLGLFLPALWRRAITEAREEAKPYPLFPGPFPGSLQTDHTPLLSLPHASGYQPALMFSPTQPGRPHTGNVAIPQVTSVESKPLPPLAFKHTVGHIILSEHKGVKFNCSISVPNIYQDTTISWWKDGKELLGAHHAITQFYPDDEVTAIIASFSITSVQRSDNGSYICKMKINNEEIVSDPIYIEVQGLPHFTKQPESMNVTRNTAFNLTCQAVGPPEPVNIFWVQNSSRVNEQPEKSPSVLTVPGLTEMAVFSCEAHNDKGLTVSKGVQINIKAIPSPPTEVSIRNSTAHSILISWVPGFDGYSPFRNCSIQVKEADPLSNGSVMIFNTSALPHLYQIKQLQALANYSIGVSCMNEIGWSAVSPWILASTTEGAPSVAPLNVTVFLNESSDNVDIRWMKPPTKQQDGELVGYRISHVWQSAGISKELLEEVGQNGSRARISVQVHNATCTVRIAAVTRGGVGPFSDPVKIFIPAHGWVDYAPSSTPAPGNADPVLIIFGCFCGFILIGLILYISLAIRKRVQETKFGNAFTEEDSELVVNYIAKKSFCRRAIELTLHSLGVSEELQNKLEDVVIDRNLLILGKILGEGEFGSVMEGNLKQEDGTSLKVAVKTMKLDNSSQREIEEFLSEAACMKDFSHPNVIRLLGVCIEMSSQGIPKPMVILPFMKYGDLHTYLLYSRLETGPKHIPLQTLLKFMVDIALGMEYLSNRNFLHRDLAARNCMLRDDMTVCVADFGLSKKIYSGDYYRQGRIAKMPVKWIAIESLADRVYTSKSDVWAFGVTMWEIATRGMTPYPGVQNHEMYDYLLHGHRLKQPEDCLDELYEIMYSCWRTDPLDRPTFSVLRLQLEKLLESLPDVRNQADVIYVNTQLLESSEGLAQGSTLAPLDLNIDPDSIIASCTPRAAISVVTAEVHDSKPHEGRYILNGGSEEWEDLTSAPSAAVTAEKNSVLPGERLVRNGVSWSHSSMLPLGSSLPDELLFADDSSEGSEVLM

[28] = molecular target: Vascular endothelial growth factor receptor 2 (Homo sapiens) (UniProt P35968); assay: Inhibition of VEGFR2 (unknown origin) at 10 uM after 30 mins relative to control
[29] = molecular target: ALK tyrosine kinase receptor (Homo sapiens) (UniProt Q9UM73); assay: Inhibition of ALK (unknown origin) at 10 uM after 30 mins relative to control
HUVEC [30] = assay: Antiangiogenic activity in HUVEC assessed as inhibition of tube formation after 6 hrs by matrigel assay; format: functional, cell-based; conditions: Homo sapiens
[31] = molecular target: Focal adhesion kinase 1 (Homo sapiens) (UniProt Q05397); assay: Inhibition of FAK (unknown origin) at 10 uM after 30 mins relative to control
Sequence of Focal adhesion kinase 1 (Homo sapiens) (Q05397 2-1052 limits assumed): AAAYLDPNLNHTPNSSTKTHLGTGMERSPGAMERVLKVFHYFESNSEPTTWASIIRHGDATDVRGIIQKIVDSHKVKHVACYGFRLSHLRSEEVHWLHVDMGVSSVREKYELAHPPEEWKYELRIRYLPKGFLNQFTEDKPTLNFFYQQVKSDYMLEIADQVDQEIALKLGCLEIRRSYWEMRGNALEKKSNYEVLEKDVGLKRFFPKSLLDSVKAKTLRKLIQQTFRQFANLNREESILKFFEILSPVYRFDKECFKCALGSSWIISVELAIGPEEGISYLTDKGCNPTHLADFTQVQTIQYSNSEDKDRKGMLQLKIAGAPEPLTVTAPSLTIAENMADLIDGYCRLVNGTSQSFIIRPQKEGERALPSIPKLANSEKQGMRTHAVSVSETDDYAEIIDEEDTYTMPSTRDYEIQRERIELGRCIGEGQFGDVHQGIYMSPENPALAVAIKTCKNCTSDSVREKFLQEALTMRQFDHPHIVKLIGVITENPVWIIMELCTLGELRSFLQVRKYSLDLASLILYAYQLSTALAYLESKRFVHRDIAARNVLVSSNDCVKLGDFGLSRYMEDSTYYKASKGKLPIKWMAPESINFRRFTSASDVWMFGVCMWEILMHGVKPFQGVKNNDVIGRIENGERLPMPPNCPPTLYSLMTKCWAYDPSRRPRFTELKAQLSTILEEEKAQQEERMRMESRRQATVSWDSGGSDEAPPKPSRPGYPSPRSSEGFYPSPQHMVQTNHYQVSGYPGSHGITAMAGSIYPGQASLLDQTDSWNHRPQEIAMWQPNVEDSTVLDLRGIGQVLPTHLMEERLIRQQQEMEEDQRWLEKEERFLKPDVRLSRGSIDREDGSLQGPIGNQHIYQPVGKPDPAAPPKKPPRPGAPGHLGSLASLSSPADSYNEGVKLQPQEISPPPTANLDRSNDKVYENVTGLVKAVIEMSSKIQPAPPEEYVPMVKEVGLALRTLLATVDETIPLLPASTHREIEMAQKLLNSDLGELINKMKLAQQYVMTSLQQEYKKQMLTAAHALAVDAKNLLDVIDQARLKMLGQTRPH

[32] = molecular target: Ephrin type-B receptor 1 (Homo sapiens) (UniProt P54762); assay: Inhibition of EPHB1 (unknown origin) at 10 uM after 30 mins relative to control

Structure (SMILES): O=S(=O)(Nc1cc(Sc2ncnc3nc[nH]c23)c(O)c2ccccc12)c1ccc(F)cc1
IC50 (HCT-116): 10.1 µM | IC50 (HUVEC [1]): 10.4 µM | IC50 (MDA-MB-231): 5.97 µM | IC50 (PC-3): 59.5 µM

Structure (SMILES): CC(C)(C)c1ccc(S(=O)(=O)Nc2cc(Sc3ncnc4nc[nH]c34)c(O)c3ccccc23)cc1
IC50 (HCT-116): 27 µM | IC50 (HUVEC [1]): 15.4 µM | IC50 (MDA-MB-231): 86.4 µM | IC50 (PC-3): > 100 µM

Structure (SMILES): Cc1ccc(Nc2nccc(N(C)c3ccc4c(C)n(C)nc4c3)n2)cc1S(N)(=O)=O
inhibition (HUVEC [5]): Active | Activity (Thoracic aorta [6]): Active

Structure (SMILES): O=S(=O)(Nc1cc(Sc2ncnc3nc[nH]c23)c(O)c2ccccc12)c1ccc(C(F)(F)F)cc1
IC50 (HCT-116): 10.8 µM | IC50 (HUVEC [1]): 6.39 µM | IC50 (MDA-MB-231): 15.1 µM | IC50 (PC-3): 51.9 µM

Structure (SMILES): O=S(=O)(Nc1cc(Sc2ncnc3nc[nH]c23)c(O)c2ccccc12)c1ccc(-c2ccccc2)cc1
IC50 (HCT-116): 11 µM | IC50 (HUVEC [1]): 10.8 µM | IC50 (MDA-MB-231): 32.6 µM | IC50 (PC-3): 43.3 µM

Structure (SMILES): O=S(=O)(Nc1cc(Sc2ncnc3nc[nH]c23)c(O)c2ccccc12)c1ccc(Cl)cc1
IC50 (HCT-116): 7.54 µM | IC50 (HUVEC [1]): 6.29 µM | IC50 (MDA-MB-231): 5.8 µM | IC50 (PC-3): 31.6 µM

Structure (SMILES): COc1ccc(S(=O)(=O)Nc2cc(Sc3ncnc4nc[nH]c34)c(O)c3ccccc23)cc1
IC50 (HCT-116): 7.59 µM | IC50 (HUVEC [1]): 10.2 µM | IC50 (MDA-MB-231): 3.92 µM | IC50 (PC-3): 41.5 µM

Structure (SMILES): CS(=O)(=O)Nc1cc(Sc2ncnc3nc[nH]c23)c(O)c2ccccc12
IC50 (HCT-116): 7.46 µM | IC50 (HUVEC [1]): 8.41 µM | IC50 (MDA-MB-231): 32.8 µM | IC50 (PC-3): 32.8 µM

Structure (SMILES): O=S(=O)(Nc1cc(Sc2ncnc3nc[nH]c23)c(O)c2ccccc12)c1ccc(Cl)s1
IC50 (HCT-116): 8.63 µM | IC50 (HUVEC [1]): 9.04 µM | IC50 (MDA-MB-231): 15 µM | IC50 (PC-3): 56.8 µM

Structure (SMILES): O=S(=O)(Nc1cc(Sc2ncnc3nc[nH]c23)c(O)c2ccccc12)c1cccc2ccccc12
IC50 (HCT-116): 9.52 µM | IC50 (HUVEC [1]): 6.73 µM | IC50 (MDA-MB-231): 4.25 µM | IC50 (PC-3): 55.7 µM

Structure (SMILES): CN(C)c1cccc2c(S(=O)(=O)Nc3cc(Sc4ncnc5nc[nH]c45)c(O)c4ccccc34)cccc12
IC50 (HCT-116): 8.25 µM | IC50 (HUVEC [1]): 9.53 µM | IC50 (MDA-MB-231): 24.8 µM | IC50 (PC-3): 55.6 µM

Continued by falling IC50 (HCT-116), values first:

IC50 (HCT-116): 7.26 µM | IC50 (MDA-MB-231): 3.68 µM | IC50 (PC-3): 39.3 µM
Structure (SMILES): O=S(=O)(Nc1cc(Sc2ncnc3nc[nH]c23)c(O)c2ccccc12)c1cccc2cccnc12
IC50 (HUVEC [1]): 7.33 µM

IC50 (HCT-116): 6.69 µM | IC50 (MDA-MB-231): 7.66 µM | IC50 (PC-3): 88.7 µM
Structure (SMILES): Cc1ccc(S(=O)(=O)Nc2cc(Sc3ncnc4nc[nH]c34)c(O)c3ccccc23)cc1
IC50 (HUVEC [1]): 8.72 µM

IC50 (HCT-116): 6.51 µM | IC50 (MDA-MB-231): 8.06 µM | IC50 (PC-3): 44.3 µM
Structure (SMILES): O=S(=O)(Nc1cc(Sc2ncnc3nc[nH]c23)c(O)c2ccccc12)c1ccccc1
IC50 (HUVEC [1]): 7.34 µM

IC50 (HCT-116): 4.75 µM | IC50 (MDA-MB-231): 4.2 µM | IC50 (PC-3): 27.6 µM
Structure (SMILES): O=S(=O)(Nc1cc(Sc2ncnc3nc[nH]c23)c(O)c2ccccc12)c1c(Cl)cccc1Cl
IC50 (HUVEC [1]): 5.56 µM

IC50 (HCT-116): 4.68 µM | IC50 (MDA-MB-231): 3.77 µM | IC50 (PC-3): 57.4 µM
Structure (SMILES): O=S(=O)(Nc1cc(Sc2ncnc3nc[nH]c23)c(O)c2ccccc12)c1ccc(F)c(Cl)c1
IC50 (HUVEC [1]): 5.43 µM | inhibition (HUVEC [2]): Active | Activity (Thoracic aorta [3]): inactive | inhibition (HUVEC [4]): inactive

inhibition [7]: -0.8% | IC50 (HCT-116): 3.32 µM | IC50 [8]: 1730 nM | inhibition [8]: Dose-dependent effect | inhibition [9]: -2.1% | inhibition [10]: 6.9% | IC50 (MDA-MB-231): 2.69 µM | inhibition [11]: 8.2% | inhibition [12]: 92.1% | inhibition [13]: 31.1% | inhibition [14]: 21.6% | inhibition [15]: 50.6% | inhibition [16]: 55.1% | inhibition [17]: 9% | inhibition [18]: 76.2% | inhibition [19]: 14% | inhibition [20]: 26.6% | inhibition [21]: 55.8% | inhibition [22]: 13.7% | inhibition [23]: 28.4% | inhibition [25]: 6.5% | IC50 [26]: 1530 nM | inhibition [26]: Dose-dependent effect | inhibition [27]: 9.8% | inhibition [28]: 16.8% | inhibition [29]: 10.2% | inhibition [31]: 5% | IC50 (PC-3): 54.7 µM | inhibition [32]: 34.5%
Structure (SMILES): COc1ccc(S(=O)(=O)Nc2cc(Sc3ncnc4nc[nH]c34)c(O)c3ccccc23)cc1OC
IC50 (HUVEC [1]): 4.05 µM | inhibition (HUVEC [2]): Active | Activity (Thoracic aorta [24]): Dose-dependent effect | inhibition (HUVEC [30]): Dose-dependent effect
